Results taken from patent US20100016546A1, “Therapeutic Peptide-Polysaccharide Biomaterials” (priority 2005, published 2010).
Read-outs that look alike come from different tables or passages of the source. No end group written: not given here.

How the values were obtained:
[1] = tested on: E. coli BL21(DE3); type: cell-based; conditions: for Measured Potency: Free Peptide (LC90) / Measured Potency: Peptide/Agarose Conjugate (LC90): E. coli (BL21 (DE3)); for Measured Potency: Peptide/Agarose Conjugate (LC90): effective peptide concentration
Description: Overall, antimicrobial activity can be evaluated by incubating small cultures of E. coli (BL21) at 37° C. with agitation (e.g., ˜3 to ˜5 hrs) in minimal media in the presence/absence of varied amounts of peptide conjugate or free peptide. Aliquots can be collected at predetermined time points to determine the cell density. One OD600 of the solution=2×10^9 CFU/ml. Correlating changes in cell density between cultures incubated with varied amounts of conjugate and cultures grown in the absence of conjugates can provide a means of evaluating the antimicrobial potency of the varied constructs. Assays such as this one are known to be used in evaluating the potency of antimicrobial peptidomimetics and biomaterials.
In one embodiment, the antimicrobial activity of the free peptides and conjugates have been assayed against E. coli BL21(DE3) cultures. In this assay, the bacteria (at ˜1×10^6 CFU/ml) are incubated for 2 hours at 37° C. in 10 mM phosphate (e.g., Na2HPO4) buffer (pH ˜7.5) with varied concentrations of peptide or peptide-conjugate. After this time, 20 μl aliquots of each culture and serial dilutions of the culture are plated onto LB agar plates and incubated over night at 37° C. The number of colonies on these plates is then counted and the survival percentage is determined relative to a control culture. The example contained no peptide.
In another embodiment, a stock solution containing 1 mg of peptide per ml solution may be prepared. Using the stock peptide (1 mg/ml) solution, assays may be prepared (volume of ˜100 μl) at 1 μg/ml, 10 μg/ml, and 100 μg/ml of free peptide (e.g., HBD-332-45). In the control sample, 10 μl of 100 mM phosphate buffer, 80 μl of sterile water and 10 μl of cell cultures may be combined and incubated without peptide for two hours at 37° C. After two hours incubation, 20 μl aliquots of the above solutions, and 1:10, and 1:100 dilutions of each may be plated in LB-agar plates and incubated over night at 37° C.
In another embodiment, peptide conjugate (e.g., HBD-332-45-agarose) with a loading of 3.82 μg of peptide/1 μl of resin may also be assayed at effective peptide concentrations of 1 μg/ml, 10 μg/ml, 25 μg/ml, 50 μg/ml, 75 μg/ml and 100 μg/ml. For example, an effective peptide concentration of 100 μg/ml of suspension may be prepared by using 52.2 μl of a 50% suspension of 3.82 μg/μl of peptide suspension (100 μg×[1 μl/3.82 μg]=26.1 μl). Samples containing varying concentrations of peptide conjugate may be combined with 10 μl of 100 mM phosphate buffer having a pH of about 7.5, 10 μl of cell cultures (˜1×10^7 CFU/ml), and the required volume of sterile water to bring a total volume of 100 μl. This combination may be incubated at 37° C. with agitation for two hours. After incubation, 20 μl of each cell culture and 1:10 and 1:100 dilutions of each cell culture may be plated on LB-agar plates and incubated at 37° C. overnight. Similar protocols may be used to evaluate the antimicrobial activity of the HBD-336-45 peptide and corresponding conjugate. […]
The results of the antimicrobial assay using free HBD-332-45 and agarose conjugate can be seen in FIG. 17. Antimicrobial activity of free HBD-332-45 is given on the left and that of the HBD-332-45 peptide-conjugate is shown on the right. E. coli at 1×10^6 CFU/ml were incubated with varied peptide concentrations (free peptide and peptide conjugate). Serial dilutions (0.1× and 0.01×) of cell cultures in all plates are shown across the figure.

[2] = tested on: E. coli; conditions: free peptide; cited from earlier work
[3] = tested on: E. coli BL21(DE3); conditions: cited from earlier work

| Substance | Measured Potency: Free Peptide (LC90) ([1]; free peptide) [µg/mL] | Measured Potency: Peptide/Agarose Conjugate (LC90) [1] | antimicrobial activity against E. coli [2] [mg/mL] | Measured Potency: Peptide/Agarose Conjugate (LC50) ([1]; Escherichia coli, 2 h, pH 7.5) | bacteria killed ([1]; free peptide, 1 μg/ml, E. coli 1×10^6 CFU/ml, 2 h) [%] | microbicidal efficiency ([1]; free peptide, 10 μg/ml) [%] | microbicidal efficiency ([1]; free peptide, 100 μg/ml) [%] | Reported Potency: Free Peptide (LC90) [3] [µg/mL] | reduction in the number of colonies ([1]; free peptide, 1 μg/ml) [%] | reduction in the number of colonies ([1]; free peptide, 10 μg/ml) [%] |
| --- | --- | --- | --- | --- | --- | --- | --- | --- | --- | --- |
| RGRRSSRRKK-NH2 [HBD-336-45(Rev2), RGRRSSRRKK-NH2] | 0.15 | ~26 µg/mL |  |  |  |  |  |  |  |  |
| KSSTRGRKSSRRKK-OH [HBD-332-45, KSSTRGRKSSRRKK] | 0.20 | ~75 µg/mL | 1 ± 0.1 | ~10 μg/ml (LC50) | ~93 | > 99 | > 99 | ~1 |  |  |
| RGRKSSRRKK-OH [HBD-336-45, RGRKSSRRKK] | 2.23 | >100 μg/m μg/ml |  |  |  |  |  | ~4 | ~67 | ~97 |
